Among the test systems are UO-31 renal; RPMI-8226 leukemia; CAKI-1 renal; TK-10 renal; SNB-19 CNS; OVCAR-3 ovarian; NCI-H23 lung; MDA-MB-435; K-562 leukemia; EKVX NSCLC.
Holding throughout (test): inhibition of tumour cell growth, NCI panel, 48 h

Each structure is given as a SMILES string. Several values for one entry are separate records, joined by “and”; a condition that tells them apart may be missing. Equal values may be shown once.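 Method: 48-hour compound exposure of cells in 96-well plates, five concentrations, linear interpolation of endpoints. GI50 is the concentration that inhibits growth by half. TGI: concentration producing complete growth inhibition.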

For `Cc1c(-c2ccc(-c3ccccc3F)cc2)nc2ccc(F)cc2c1C(=O)O`, the GI50 in the test with UO-31 renal was 1850 nM and 2650 nM; in the test with RPMI-8226 leukemia, 811 nM; in the test on CAKI-1 renal, 3.34 µM; with TK-10 renal, 62.7 µM; in the test on SNB-19 CNS, 0.864 µM and 1.73 µM; with OVCAR-3 ovarian, 10.1 µM and 23 µM. Also, the GI50 in the test on NCI-H23 lung was 17.4 µM and 35.1 µM; in the test on MDA-MB-435, 1280 nM and 371 nM and 2480 nM; in the test on EKVX NSCLC, 77 µM and 53.3 µM. Besides, the TGI in the test with UO-31 renal is 78.9 µM and 105 µM; in the test with CAKI-1 renal, 105 µM and 109 µM; in the test with TK-10 renal it was 208 µM and 471 µM; in the test on SNB-19 CNS it was 164 µM and 513 µM; with OVCAR-3 ovarian it was 27.5 µM and 91.6 µM and 139 µM; with NCI-H23 lung it was 173 µM and 529 µM. Besides, the TGI in the test on MDA-MB-435 was 101 µM and 128 µM; with K-562 leukemia, 211 µM and 401 µM; in the test with EKVX NSCLC it was 173 µM and 448 µM.

Take `CC(C)C(Br)C(=O)NCC(=O)O` (centres undefined): the TGI in the test on UO-31 renal, in the test on RPMI-8226 leukemia, in the test with CAKI-1 renal, in the test with TK-10 renal, in the test with SNB-19 CNS and in the test with OVCAR-3 ovarian was greater than 100 µM in each case. For the same molecule, the TGI with NCI-H23 lung, in the test with MDA-MB-435, in the test with K-562 leukemia and in the test with EKVX NSCLC was greater than 100 µM throughout.

Consider `CC(=O)c1nc(-c2ccc(C[C@@H](CNC(=O)CN(C)C)NC(=O)c3ccc(OC(C)C)c(Cl)c3)cc2)cn1C`, for which the GI50 with UO-31 renal is 723 nM; in the test with RPMI-8226 leukemia, 41.3 nM; in the test on TK-10 renal it was 12.1 µM; in the test on SNB-19 CNS, 0.0439 µM; in the test with OVCAR-3 ovarian, 0.0332 µM; in the test with NCI-H23 lung, 0.0647 µM. Moreover, the GI50 in the test with MDA-MB-435 was 29.7 nM; in the test on K-562 leukemia it was less than 0.0196 µM; with EKVX NSCLC, 0.0455 µM. For the same molecule, the TGI in the test with UO-31 renal amounted to 17.6 µM; with RPMI-8226 leukemia, 23.2 µM; in the test on TK-10 renal, 25 µM; with SNB-19 CNS it was 17.7 µM; in the test with OVCAR-3 ovarian, 13.3 µM; in the test on NCI-H23 lung, 21.1 µM. The results for the TGI with MDA-MB-435, with K-562 leukemia and with EKVX NSCLC were 14 µM, 12.9 µM and 17.8 µM, respectively.

On to `CCOC(=O)C(Cc1cc(OC)c(CC(C(=O)OCC)C(=O)OCC)cc1OC)C(=O)OCC`, for which the TGI in the test on UO-31 renal, with RPMI-8226 leukemia, in the test with CAKI-1 renal, with TK-10 renal, with SNB-19 CNS and in the test with OVCAR-3 ovarian was greater than 100 µM in each case. Further, the TGI in the test on NCI-H23 lung, in the test on MDA-MB-435, in the test with K-562 leukemia and in the test with EKVX NSCLC was greater than 100 µM in each case.

On to `S=C(Nc1ccc(-c2nc3ccccc3s2)cc1)Nc1ccc(-c2nc3ccccc3s2)cc1`, for which the GI50 was 12400 nM in the test with UO-31 renal; 34600 nM in the test with RPMI-8226 leukemia; 13.5 µM with CAKI-1 renal; 18.3 µM with TK-10 renal; 43 µM in the test on SNB-19 CNS; 24.5 µM in the test on OVCAR-3 ovarian. The GI50 in the test on NCI-H23 lung is 21.1 µM; with MDA-MB-435, 24800 nM; with K-562 leukemia it was 26.4 µM; in the test on EKVX NSCLC, 8.79 µM. Moreover, the TGI in the test with UO-31 renal was 34 µM; with RPMI-8226 leukemia, greater than 100 µM; in the test on CAKI-1 renal, 48.1 µM; in the test on TK-10 renal, 63.2 µM; in the test with SNB-19 CNS, greater than 100 µM; with OVCAR-3 ovarian, greater than 100 µM. The TGI in the test with NCI-H23 lung came to 44.9 µM; with MDA-MB-435 it was 73 µM; with K-562 leukemia, 87.6 µM; with EKVX NSCLC, 30.2 µM.

For `COc1c(OC2OC(C)C(O)C(O)C2O)c(OC)c2oc(-c3ccc(O)cc3)cc(=O)c2c1O` (centres undefined), the GI50 in the test with UO-31 renal was 22800 nM; with RPMI-8226 leukemia it was 28200 nM; in the test on CAKI-1 renal it was 27.6 µM; in the test with TK-10 renal, 72.2 µM; in the test with SNB-19 CNS it was 45.2 µM; with OVCAR-3 ovarian, 21.5 µM. The GI50 was 20.6 µM with NCI-H23 lung, 29100 nM with MDA-MB-435, 26.2 µM in the test with K-562 leukemia and 38.4 µM in the test with EKVX NSCLC. For the same molecule, the TGI in the test with UO-31 renal is greater than 100 µM; in the test on RPMI-8226 leukemia it was greater than 100 µM; in the test with CAKI-1 renal, greater than 100 µM; in the test with TK-10 renal it was greater than 100 µM; in the test with SNB-19 CNS, greater than 100 µM; in the test on OVCAR-3 ovarian it was 64.4 µM. In addition, the TGI with NCI-H23 lung was 57.1 µM; in the test on MDA-MB-435, 78.5 µM; in the test on K-562 leukemia it was greater than 100 µM; in the test with EKVX NSCLC, greater than 100 µM.

Turning to `Cc1cc(C)c(-c2c(O)c(Br)c(-c3c(C)cc(C)c(Br)c3C)c(O)c2Br)c(C)c1Br`, the GI50 with UO-31 renal is 1290 nM; in the test on RPMI-8226 leukemia, 2080 nM; in the test with CAKI-1 renal, 1.66 µM; in the test on TK-10 renal, 3.37 µM; in the test on OVCAR-3 ovarian it was 2.33 µM; in the test on NCI-H23 lung, 3.21 µM. The GI50 in the test with MDA-MB-435 was 2350 nM; in the test with K-562 leukemia it was 2.65 µM; with EKVX NSCLC it was 1.62 µM. In addition, the TGI was 8.22 µM in the test on UO-31 renal; 11.9 µM with RPMI-8226 leukemia; 5.99 µM in the test on CAKI-1 renal; 13.4 µM in the test on TK-10 renal; 10.8 µM with OVCAR-3 ovarian; 11.8 µM in the test on NCI-H23 lung. The values for the TGI in the test with MDA-MB-435, in the test on K-562 leukemia and in the test on EKVX NSCLC were 8.55 µM, 13.9 µM and 8.86 µM, respectively.

`CCOC(=O)/C=C/c1ccc([N+](=O)[O-])o1`: the GI50 in the test with UO-31 renal is 1690 nM; with RPMI-8226 leukemia, 3180 nM; in the test on CAKI-1 renal it was 2.06 µM; in the test with TK-10 renal, 4.7 µM; with SNB-19 CNS, 29 µM; with OVCAR-3 ovarian, 3.13 µM. The GI50 was 4.12 µM with NCI-H23 lung, 2100 nM in the test with MDA-MB-435, 2.97 µM in the test on K-562 leukemia and 24.7 µM in the test on EKVX NSCLC. Further, the TGI with UO-31 renal was 3.42 µM; in the test with RPMI-8226 leukemia, 12.2 µM; with CAKI-1 renal, 4.38 µM; in the test with TK-10 renal, 16.3 µM; with SNB-19 CNS it was greater than 100 µM; in the test on OVCAR-3 ovarian, 9.21 µM. Further, the TGI in the test on NCI-H23 lung is 18.4 µM; in the test on MDA-MB-435 it was 4.67 µM; in the test on K-562 leukemia it was 12.9 µM; in the test on EKVX NSCLC, 80.7 µM.

As for `CCOC(=O)c1sc(NC(=O)COc2ccc(/C=C3\CCc4cc(OC)ccc4C3=O)cc2)nc1C`, the GI50 with UO-31 renal is 1780 nM; in the test on RPMI-8226 leukemia it was 684 nM; with CAKI-1 renal, 11.1 µM; in the test with TK-10 renal, 3.34 µM; in the test on SNB-19 CNS, 12.2 µM; in the test on OVCAR-3 ovarian, 11 µM. The GI50 in the test on NCI-H23 lung was 13.7 µM; in the test on MDA-MB-435 it was 4050 nM; with K-562 leukemia, 3.71 µM; in the test with EKVX NSCLC, 18.5 µM. Moreover, the TGI worked out at 9.64 µM in the test on UO-31 renal; 6.64 µM in the test on RPMI-8226 leukemia; 31.6 µM in the test with CAKI-1 renal; 21.4 µM in the test with TK-10 renal; 25.1 µM in the test with SNB-19 CNS; 25.8 µM in the test on OVCAR-3 ovarian. For the same molecule, the TGI in the test with NCI-H23 lung is 32.4 µM; in the test with MDA-MB-435 it was 18.3 µM; in the test on K-562 leukemia it was greater than 40.3 µM; in the test on EKVX NSCLC, 53.3 µM.

(Values after PubChem BioAssay (NCI).)
